In brackets after ≈: the same amount, converted by molar mass. Entries after “also recorded” stand apart in the source; their conditions may differ.
test system: vaccinia virus; assay: microbe, parasite or virus in culture; type: cell-based; conditions: Orthopoxvirus vaccinia, HSF, 72 h, read-out: ID50 Vaccinia (HSF)

Point of comparison: `C=C(Cl)c1cn([C@H]2C[C@H](O)[C@@H](CO)O2)c(=O)[nH]c1=O` [5-(1-chlorovinyl)-2'-deoxyuridine], IC50 0.7 µg/mL (≈ 2.42 µM). Against it:
- C#Cc1cn([C@H]2C[C@H](O)[C@@H](CO)O2)c(=O)[nH]c1=O [2'-deoxy-5-ethynyluridine] — 7-fold lower, 0.1 µg/mL (≈ 0.396 µM)
- O=c1[nH]c(=O)n([C@H]2C[C@H](O)[C@@H](CO)O2)cc1I [2'-deoxy-5-iodouridine] — 3.5-fold lower, 0.2 µg/mL (≈ 0.565 µM)
- C=Cc1cn([C@H]2C[C@H](O)[C@@H](CO)O2)c(=O)[nH]c1=O [2'-deoxy-5-vinyluridine] — 7-fold lower, 0.1 µg/mL (≈ 0.393 µM)
- O=c1[nH]c(=O)n([C@H]2C[C@H](O)[C@@H](CO)O2)cc1/C=C/Br [E-5-(2-bromovinyl)-2'-deoxyuridine] — the same, 0.7 µg/mL (≈ 2.1 µM)

same assay, conditions: Orthopoxvirus vaccinia, PRK, in Oryctolagus cuniculus, 72 h, read-out: ID50 Vaccinia (PRK)

Point of comparison: `O=c1[nH]c(=O)n([C@H]2C[C@H](O)[C@@H](CO)O2)cc1I` [2'-deoxy-5-iodouridine], IC50 0.2 µg/mL (≈ 0.565 µM). Against it:
- C#Cc1cn([C@H]2C[C@H](O)[C@@H](CO)O2)c(=O)[nH]c1=O [2'-deoxy-5-ethynyluridine] — the same, 0.2 µg/mL (≈ 0.793 µM)
- C=Cc1cn([C@H]2C[C@H](O)[C@@H](CO)O2)c(=O)[nH]c1=O [2'-deoxy-5-vinyluridine] — 2-fold higher, 0.4 µg/mL (≈ 1.57 µM)
- C=C(Cl)c1cn([C@H]2C[C@H](O)[C@@H](CO)O2)c(=O)[nH]c1=O [5-(1-chlorovinyl)-2'-deoxyuridine] — 2-fold higher, 0.4 µg/mL (≈ 1.39 µM)
- O=c1[nH]c(=O)n([C@H]2C[C@H](O)[C@@H](CO)O2)cc1/C=C/Br [E-5-(2-bromovinyl)-2'-deoxyuridine] — 35-fold higher, 7 µg/mL (≈ 21 µM)
- O=c1[nH]c(=O)n([C@H]2C[C@H](O)[C@@H](CO)O2)cc1/C=C/I [E-5-(2-iodovinyl)-2'-deoxyuridine] — 50-fold higher, 10 µg/mL (≈ 26.3 µM)

test system: herpes simplex-1 (strain KOS) virus; assay: microbe, parasite or virus in culture; type: cell-based, herpes simplex-1 virus (strain KOS); conditions: 72 h; human skin fibroblast (HSF) cells; 100 CCID50; CPE, generally 3 days; average of three experiments; read-out: ID50 Herpes simplex-1 strain KOS (HSF)

Point of comparison: `O=c1[nH]c(=O)n([C@H]2C[C@H](O)[C@@H](CO)O2)cc1/C=C/Br` [E-5-(2-bromovinyl)-2'-deoxyuridine], IC50 0.007 µg/mL (≈ 0.021 µM). Against it:
- C#Cc1cn([C@H]2C[C@H](O)[C@@H](CO)O2)c(=O)[nH]c1=O [2'-deoxy-5-ethynyluridine] — 57-fold higher, 0.4 µg/mL (≈ 1.59 µM)
- O=c1[nH]c(=O)n([C@H]2C[C@H](O)[C@@H](CO)O2)cc1I [2'-deoxy-5-iodouridine] — 100-fold higher, 0.7 µg/mL (≈ 1.98 µM)
- C=Cc1cn([C@H]2C[C@H](O)[C@@H](CO)O2)c(=O)[nH]c1=O [2'-deoxy-5-vinyluridine] — 10-fold higher, 0.07 µg/mL (≈ 0.275 µM)
- C=C(Cl)c1cn([C@H]2C[C@H](O)[C@@H](CO)O2)c(=O)[nH]c1=O [5-(1-chlorovinyl)-2'-deoxyuridine] — 290-fold higher, 2 µg/mL (≈ 6.93 µM)

same assay, conditions: 72 h; primary rabbit kidney (PRK) cells; 100 CCID50; CPE, generally 3 days; average of three experiments; read-out: ID50 Herpes simplex-1 strain KOS (PRK)

Point of comparison: `C#Cc1cn([C@H]2C[C@H](O)[C@@H](CO)O2)c(=O)[nH]c1=O` [2'-deoxy-5-ethynyluridine], IC50 0.07 µg/mL (≈ 0.278 µM). Against it:
- O=c1[nH]c(=O)n([C@H]2C[C@H](O)[C@@H](CO)O2)cc1I [2'-deoxy-5-iodouridine] — 2.9-fold higher, 0.2 µg/mL (≈ 0.565 µM)
- C=Cc1cn([C@H]2C[C@H](O)[C@@H](CO)O2)c(=O)[nH]c1=O [2'-deoxy-5-vinyluridine] — 1.8-fold lower, 0.04 µg/mL (≈ 0.157 µM)
- C=C(Cl)c1cn([C@H]2C[C@H](O)[C@@H](CO)O2)c(=O)[nH]c1=O [5-(1-chlorovinyl)-2'-deoxyuridine] — 5.7-fold higher, 0.4 µg/mL (≈ 1.39 µM)
- O=c1[nH]c(=O)n([C@H]2C[C@H](O)[C@@H](CO)O2)cc1/C=C/Br [E-5-(2-bromovinyl)-2'-deoxyuridine] — 10-fold lower, 0.007 µg/mL (≈ 0.021 µM)
- O=c1[nH]c(=O)n([C@H]2C[C@H](O)[C@@H](CO)O2)cc1/C=C/I [E-5-(2-iodovinyl)-2'-deoxyuridine] — 7-fold lower, 0.01 µg/mL (≈ 0.0263 µM)

same assay, conditions: herpes simplex virus

With `O=c1[nH]c(=O)n([C@H]2C[C@H](O)[C@@H](CO)O2)cc1/C=C/Br` [E-5-(2-bromovinyl)-2'-deoxyuridine] the “selectivity of antiviral activity (in words)” value was “specific antiviral activity; also recorded: very selective towards herpes simplex virus”.
With `O=c1[nH]c(=O)n([C@H]2C[C@H](O)[C@@H](CO)O2)cc1/C=C/I` [E-5-(2-iodovinyl)-2'-deoxyuridine] the “selectivity of antiviral activity (in words)” value was “specific antiviral activity; also recorded: very selective towards herpes simplex virus”.

test system: not listed separately; assay: Antimetabolic activity: inhibition of (methyl-^3 H)TdR incorporation into DNA of PRK cells (Test 3a); type: cell-based; conditions: rabbit, prk cells
Protocol: (§1) (a) In a first experiment, the incorporation of certain radiolabelled DNA precursors into DNA of the cells, and the effect of 5-(2-bromovinyl)-2'-deoxyuridine and related compounds thereon, was tested. The technique has been described by De Clercq et al in Biochemical Pharmacology, 26, 794-797 (1977) and by De Clercq et al in Molecular Pharmacology, in press, 1978, which are incorporated herein by way of reference.
(§2) The DNA precursors as used were (methyl-^3 H) (2'-deoxythymidine) (TdR), and (2-^14 C) (2'-deoxyuridine) (UdR).
(§3) Incorporation of the radiolabelled precursor was then measured as described and the ID50 was determined.

Point of comparison: `C=C(Cl)c1cn([C@H]2C[C@H](O)[C@@H](CO)O2)c(=O)[nH]c1=O` [5-(1-chlorovinyl)-2'-deoxyuridine], IC50 at 16 h 27 µg/mL (≈ 93.5 µM). Against it:
- O=c1[nH]c(=O)n([C@H]2C[C@H](O)[C@@H](CO)O2)cc1I [2'-deoxy-5-iodouridine] — 11-fold lower, 2.5 µg/mL (≈ 7.06 µM)
- C=Cc1cn([C@H]2C[C@H](O)[C@@H](CO)O2)c(=O)[nH]c1=O [2'-deoxy-5-vinyluridine] — within 1.5-fold, 20 µg/mL (≈ 78.7 µM)

same assay, conditions: rabbit; PRK cells; 16 hours; read-out: ID50 (methyl-^3 H)TdR incorporation into DNA

Point of comparison: `C#Cc1cn([C@H]2C[C@H](O)[C@@H](CO)O2)c(=O)[nH]c1=O` [2'-deoxy-5-ethynyluridine], IC50 at 16 h 100 µg/mL (≈ 396 µM). Against it:
- O=c1[nH]c(=O)n([C@H]2C[C@H](O)[C@@H](CO)O2)cc1/C=C/Br [E-5-(2-bromovinyl)-2'-deoxyuridine] — within 1.5-fold, 70 µg/mL (≈ 210 µM)

test system: not listed separately; assay: Antimetabolic activity: inhibition of (2-^14 C)UdR incorporation into DNA of PRK cells (Test 3a); type: cell-based; conditions: rabbit, prk cells
Protocol: as §1, §2, §3

Point of comparison: `O=c1[nH]c(=O)n([C@H]2C[C@H](O)[C@@H](CO)O2)cc1I` [2'-deoxy-5-iodouridine], IC50 at 16 h 1.2 µg/mL (≈ 3.39 µM). Against it:
- C=Cc1cn([C@H]2C[C@H](O)[C@@H](CO)O2)c(=O)[nH]c1=O [2'-deoxy-5-vinyluridine] — 6.7-fold higher, 8 µg/mL (≈ 31.5 µM)
- C=C(Cl)c1cn([C@H]2C[C@H](O)[C@@H](CO)O2)c(=O)[nH]c1=O [5-(1-chlorovinyl)-2'-deoxyuridine] — not separable, < 6 µg/mL

same assay, conditions: rabbit; PRK cells; 16 hours; read-out: ID50 (2-^14)UdR incorpor. into DNA

Point of comparison: `O=c1[nH]c(=O)n([C@H]2C[C@H](O)[C@@H](CO)O2)cc1/C=C/Br` [E-5-(2-bromovinyl)-2'-deoxyuridine], IC50 at 16 h 35 µg/mL (≈ 105 µM). Against it:
- C#Cc1cn([C@H]2C[C@H](O)[C@@H](CO)O2)c(=O)[nH]c1=O [2'-deoxy-5-ethynyluridine] — lower, < 6 µg/mL

test system: herpes simplex-1; assay: Antiviral index in PRK cell cultures: antimetabolic ID50 divided by antiviral ID50 (Test 4); type: cell-based, herpes simplex-1 virus; conditions: PRK cells; ID50 cell number / ID50 CPE of herpes simplex-1
Protocol: Finally, the antiviral index of 5-(2-bromovinyl)-2'-deoxyuridine and its related compounds in PRK cell cultures was determined as a result of the measurements made in the foregoing tests.
The antiviral index was calculated by dividing the "antimetabolic" ID50 by the "antiviral" ID50. The "antimetabolic" ID50 corresponded to the dose required to reduce the cell number by 50% whereas the "antiviral" ID50 corresponded to the dose required to inhibit the cytopathic effect of herpes simplex-1 by 50%.

Point of comparison: `O=c1[nH]c(=O)n([C@H]2C[C@H](O)[C@@H](CO)O2)cc1I` [2'-deoxy-5-iodouridine], Antiviral index 30. Against it:
- C#Cc1cn([C@H]2C[C@H](O)[C@@H](CO)O2)c(=O)[nH]c1=O [2'-deoxy-5-ethynyluridine] — lower, 5
- C=Cc1cn([C@H]2C[C@H](O)[C@@H](CO)O2)c(=O)[nH]c1=O [2'-deoxy-5-vinyluridine] — higher, 200
- C=C(Cl)c1cn([C@H]2C[C@H](O)[C@@H](CO)O2)c(=O)[nH]c1=O [5-(1-chlorovinyl)-2'-deoxyuridine] — lower, 5

`O=c1[nH]c(=O)n([C@H]2C[C@H](O)[C@@H](CO)O2)cc1/C=C/Br` [E-5-(2-bromovinyl)-2'-deoxyuridine] gave an Antiviral index greater than 5000.

same assay, conditions: against herpes simplex virus

With `O=c1[nH]c(=O)n([C@H]2C[C@H](O)[C@@H](CO)O2)cc1/C=C/Br` [E-5-(2-bromovinyl)-2'-deoxyuridine] the “antiviral index (in words)” value was “remarkably high antiviral index”.
With `O=c1[nH]c(=O)n([C@H]2C[C@H](O)[C@@H](CO)O2)cc1/C=C/I` [E-5-(2-iodovinyl)-2'-deoxyuridine] the “antiviral index (in words)” value was “high antiviral index”.

test system: cell culture; assay: not given; conditions: not given

For `O=c1[nH]c(=O)n([C@H]2C[C@H](O)[C@@H](CO)O2)cc1/C=C/I` [E-5-(2-iodovinyl)-2'-deoxyuridine], the “toxicity (in words)” value was “remarkably low”.

test system: DNA viruses such as vaccinia and herpes simplex; assay: not given; conditions: state of the art; cited from earlier work

In the case of `O=c1[nH]c(=O)n([C@H]2C[C@H](O)[C@@H](CO)O2)cc1I` [2'-deoxy-5-iodouridine], the “antiviral activity/specificity of known compounds (in words)” value is given as “act equally well against different DNA viruses such as vaccinia and herpes simplex”.
In the case of `C=Cc1cn([C@H]2C[C@H](O)[C@@H](CO)O2)c(=O)[nH]c1=O` [2'-deoxy-5-vinyluridine], the “antiviral activity/specificity of known compounds (in words)” value is given as “act equally well against different DNA viruses such as vaccinia and herpes simplex”.

test system: not given; assay: not given; conditions: state of the art; cited from earlier work

For `O=c1[nH]c(=O)n([C@H]2C[C@H](O)[C@@H](CO)O2)cc1I` [2'-deoxy-5-iodouridine], the “toxicity of known compounds (in words)” value is given as “cannot be neglected”.
In the case of `C=Cc1cn([C@H]2C[C@H](O)[C@@H](CO)O2)c(=O)[nH]c1=O` [2'-deoxy-5-vinyluridine], the “toxicity of known compounds (in words)” value is given as “cannot be neglected”.

test system: not listed separately; assay: in vitro; conditions: rabbit, prk cells

Point of comparison: `O=c1[nH]c(=O)n([C@H]2C[C@H](O)[C@@H](CO)O2)cc1I` [2'-deoxy-5-iodouridine], CC50 at 72 h 6 µg/mL (≈ 16.9 µM). Against it:
- C=Cc1cn([C@H]2C[C@H](O)[C@@H](CO)O2)c(=O)[nH]c1=O [2'-deoxy-5-vinyluridine] — within 1.5-fold, 8 µg/mL (≈ 31.5 µM)
- C=C(Cl)c1cn([C@H]2C[C@H](O)[C@@H](CO)O2)c(=O)[nH]c1=O [5-(1-chlorovinyl)-2'-deoxyuridine] — 3-fold lower, 2 µg/mL (≈ 6.93 µM)

test system: cell culture; assay: Toxicity in cell culture (summary statement); conditions: not given

For `O=c1[nH]c(=O)n([C@H]2C[C@H](O)[C@@H](CO)O2)cc1/C=C/Br` [E-5-(2-bromovinyl)-2'-deoxyuridine], the “toxicity (in words)” value was “remarkably low”.

test system: not listed separately; assay: Antimetabolic activity: reduction of total cell number of PRK cells (Test 3b); conditions: rabbit

Point of comparison: `C#Cc1cn([C@H]2C[C@H](O)[C@@H](CO)O2)c(=O)[nH]c1=O` [2'-deoxy-5-ethynyluridine], CC50 at 72 h 0.3 µg/mL (≈ 1.19 µM). Against it:
- O=c1[nH]c(=O)n([C@H]2C[C@H](O)[C@@H](CO)O2)cc1/C=C/Br [E-5-(2-bromovinyl)-2'-deoxyuridine] — higher, > 33 µg/mL
